# Patent US10563272B2, “Compositions comprising Metarhizium fungi and use thereof as a pesticide” (Cotton Research and Development Corporation, priority 2015, dated 2020)
# Tests used:
# spiders = test: Foliar spray trial on Bollgard II cotton, Norwood 2010-11 (Example 7): spiders; type: in vivo, Lycosa spp., Oxyopes spp., Salticidae spp., Araneus spp.; settings: fipronil 62.5 mL/ha; for number of spiders per meter: 1st spray, BC 667/DAT 511 0.50 L/ha; for number of spiders per metre: 2nd spray, BC 667/DAT 511 0.5 L/ha
# Experimental: The trial was conducted on commercial Bollgard II® cotton crops at Norwood near Moree, NSW from 5 Dec. 2010 to 19 Feb. 2011. The cotton was at the early squaring stage, when it was attractive to green mirids (Khan et al. 2004).
# The study evaluated the efficacy of the following treatments against green mirids, green vegetable bugs and predatory insects: • 1. 500 mL/ha BC 667 spore in oil (1×10^7 spores/ml); • 2. 500 mL/ha DAT 511 spore in oil (1×10^7 spores/ml); • 3. 62.5 mL/ha Fipronil (conventional insecticide); and • 4. Unsprayed (control).
# The treatment plots were arranged in a randomized complete block design with four replicates per treatment. Each replicated plot measured 0.5 ha. Foliar application of each treatment was made on 18 Jan. 2011 using a ground spray rig fitted with flat fan nozzles to achieve a droplet size of 80 250 μm. The treatment was applied in the mornings when temperature was between 20° C. and 28° C. The timing of treatment was based on an economic threshold of 0.5 green mirids per metre, the IPM guideline and recommendation by CottonLogic.
# Pre-treatment counts of green mirid adults and nymphs, predatory beetles, predatory bugs, predatory lacewings and spiders were made by visual inspection of whole cotton plants. Both adults and nymphs of the beneficial insects were counted. Plants were assessed in randomly selected one-metre lengths of row of each treatment replicate (i.e. four metres per treatment). In all, two spray applications of each treatment were made. The first spray was made on 18 Jan. 2011. Post-treatment counts of the first spray application were taken 3, 7 and 14 days after treatment (DAT) (first spray). A second spray application was done on 1 Feb. 2011 when green mirid adults plus nymphs reached the threshold of 0.5 per metre. Post-treatment counts of the second spray application were taken 3, 7, 14, 21 and 28 DAT. Data are expressed as numbers of individuals of that species counted per metre for each treatment.
# green mirids = test: Rate trial on conventional cotton, ACRI 2011-12 (Example 9): green mirids; type: in vivo, Creontiades dilutus
# Experimental: This trial was conducted in an irrigated field of commercial conventional cotton at the Australian Cotton Research Institute (ACRI) farm in Narrabri, NSW, during the 2011-2012 season. The treatments in this trial were as follows: • 1. 250 mL/ha DAT 511; • 2. 500 mL/ha DAT 511; and • 3. 1 L/ha DAT 511.
# Results were compared with data from unsprayed conventional cotton crops (negative control) and conventional cotton crops treated with 62.5 mL/ha of fipronil. The population of apple dimpling bugs at the study site was higher than GVB and green mirids, and remained so throughout the season. Therefore the trials were treated and assessed from 8 Jan. to 12 Feb. 2012 for green mirids, 26 Feb. 2012 for GVB and 4 Mar. 2012 for apple dimpling bugs. The treatment plots were arranged in a randomized complete block design with eight replicates per treatment. Each replicated plot measured 16 m (16 rows) wide and 250 m long.
# Foliar applications of each treatment were made on 8 Jan. 22 Jan. and 5 Feb. 2012. The decision to apply the treatment was based on the IPM Guidelines and the CottonLogic recommended economic threshold of 0.5 green mirids per metre. Pre-treatment counts were made by visual counting of the numbers of green mirid, green vegetable bug and apple dimpling bug adults and nymphs, as well as predatory beetles, predatory bugs, predatory lacewings and spiders on cotton plants in each treatment. Post-treatment counts were made following the first spray at 7 and 14 DAT, following the second spray at 7 DAT for green mirids and GVB, and up to 28 DAT for the third spray for apple dimpling bugs. All counts were done on a randomly selected one-metre length of row of each treatment replicate (i.e. total of 8 m). Data were expressed as numbers per metre and numbers per metre per sampling date for each treatment.
# predatory bugs = test: Rate trial on conventional cotton refuge crops, Undabri 2012 (Example 12): predatory bugs; type: in vivo, Hemiptera (Nabidae, Lygaeidae, Pentatomidae); settings: DAT 511 500 mL and 1.0 L/ha (P<0.001 versus 250 mL/ha and unsprayed); fipronil 62.5 mL/ha
# Experimental: This trial was conducted using commercial conventional cotton refuge crops at Undabri in Goondiwindi (28° 55'S, 150° 31′E) from 14 Feb. to 6 Mar. 2012.
# The efficacy of the following treatments against green mirids, green vegetable bugs and predatory insects was assessed: • 1. 250 mL/ha DAT 511 spore in oil (1×10^7 spores/ml); • 2. 500 mL/ha DAT 511 spore in oil (1×10^7 spores/ml); • 3. 1 L/ha DAT 511 spore in oil (1×10^7 spores/ml); • 4. 62.5 mL/ha fipronil; and • 5. Unsprayed (negative control).
# The plots were arranged in a randomized complete block design with three replicates per treatment. Each replicated plot measured 8 m (8 rows) wide and 250 m long.
# Foliar applications of each treatment were made on 14 Feb. 2012 using a ground spray rig fitted with flat fan nozzles to achieve a droplet size of 200 μm. All insecticide formulations were water miscible. All treatments were applied using a spray volume of 100 L/ha. The untreated (negative control) plot was left unsprayed and the plot treated with synthetic insecticide received two applications similar to, and on the same date as, the plots treated with the fungus.
# For each replicate, visual counts of adults and nymphs of green mirids, green vegetable bugs (GVB), apple dimpling bugs and predatory insects on whole cotton plants were made in a randomly selected 1 m length of row of cotton plants (i.e. 6 m per treatment). […]
smiles,measurement,setting,value
N#Cc1nn(-c2c(Cl)cc(C(F)(F)F)cc2Cl)c(N)c1[S+]([O-])C(F)(F)F (centres unmarked) [fipronil],number of spiders per meter,spiders; 3 DAT,3.33 ± 0.33 a per meter
same,number of spiders per meter,spiders; 7 DAT,4.67 ± 2.03 b per meter
same,number of spiders per meter,spiders; 14 DAT,9.67 ± 1.45 a per meter
same,number of spiders per meter,spiders; pre-spray counts 18 Jan. 2011,9.33 ± 1.20 a per meter
same,number of spiders per metre,spiders; 3 DAT,12.00 ± 1.16a per metre
same,number of spiders per metre,spiders; 7 DAT,10.33 ± 2.67a per metre
same,number of spiders per metre,spiders; 14 DAT,16.00 ± 0.58b per metre
same,number of spiders per metre,spiders; 21 DAT,21.00 ± 3.22a per metre
same,number of spiders per metre,spiders; 28 DAT,21.00 ± 3.00a per metre
same,number of spiders per metre,spiders; pre-spray counts 1 Feb. 2011,9.67 ± 1.45a per metre
same,adult mirids found on treated plots,green mirids; at the second spray application,no adult mirids were found
same,adult and nymph green mirids versus unsprayed (control) plots,"green mirids; different rates of DAT 511, fipronil 62.5 mL/ha, P<0.0001",Significantly fewer
same,mirid nymphs found on treated plots,"green mirids; seven days after second spray, DAT 511 500 mL and 1.0 L/ha, fipronil",no mirid nymphs were found
same,effect on number of predatory bugs per metre,predatory bugs,significantly lower
